Experimental data taken from patent publication US11524966B1 (Valo Early Discovery, Inc., priority 2017, dated 2022).

target: T1, USP25 (USP25-His6, Boston Biochem E-546) (Homo sapiens, UniProt Q9UHP3); test: Ubiquitin-Rhodamine 110 Assay for USP25 Activity, Example A-2; assay type: biochemical; settings: Ubiquitin-Rhodamine 110 assay, Example A-2; read-out: USP25 A-2 IC50 range
T1 construct: His6; purchased Boston Biochem E-546
T1 sequence (Q9UHP3 1-1055): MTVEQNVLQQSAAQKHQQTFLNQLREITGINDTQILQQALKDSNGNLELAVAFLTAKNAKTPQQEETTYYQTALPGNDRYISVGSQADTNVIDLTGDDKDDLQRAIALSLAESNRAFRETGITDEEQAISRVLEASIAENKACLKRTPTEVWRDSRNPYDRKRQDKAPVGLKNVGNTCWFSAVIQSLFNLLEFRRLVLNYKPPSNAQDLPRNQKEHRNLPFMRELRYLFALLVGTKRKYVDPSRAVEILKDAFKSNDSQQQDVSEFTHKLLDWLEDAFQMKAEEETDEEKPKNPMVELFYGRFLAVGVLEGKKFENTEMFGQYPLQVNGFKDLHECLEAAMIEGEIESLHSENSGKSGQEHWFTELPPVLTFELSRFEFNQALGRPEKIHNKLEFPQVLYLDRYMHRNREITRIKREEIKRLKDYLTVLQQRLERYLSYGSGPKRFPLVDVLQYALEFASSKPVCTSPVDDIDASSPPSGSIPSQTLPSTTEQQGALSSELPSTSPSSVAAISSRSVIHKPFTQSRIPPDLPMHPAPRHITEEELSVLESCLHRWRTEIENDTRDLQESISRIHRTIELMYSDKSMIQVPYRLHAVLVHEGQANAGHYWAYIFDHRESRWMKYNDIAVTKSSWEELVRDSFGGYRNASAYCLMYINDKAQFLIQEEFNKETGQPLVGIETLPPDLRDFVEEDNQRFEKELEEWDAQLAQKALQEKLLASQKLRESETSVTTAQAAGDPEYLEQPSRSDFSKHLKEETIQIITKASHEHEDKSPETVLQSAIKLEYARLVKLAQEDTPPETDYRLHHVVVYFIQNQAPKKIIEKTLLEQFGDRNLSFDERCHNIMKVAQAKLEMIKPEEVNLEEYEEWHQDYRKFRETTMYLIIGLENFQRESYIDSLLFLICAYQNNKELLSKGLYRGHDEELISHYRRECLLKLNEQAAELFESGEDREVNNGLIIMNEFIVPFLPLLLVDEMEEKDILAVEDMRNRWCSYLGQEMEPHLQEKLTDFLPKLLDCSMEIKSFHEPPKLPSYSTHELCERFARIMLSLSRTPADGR
Outline: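 Cleavage of ubiquitin-rhodamine 110 (25 nM, well below Km) by His-tagged USP25 at 75 pM is measured fluorimetrically after 45 min at room temperature and acid quench. Inhibitors are preincubated with enzyme for 30 minutes. IC50 values come from four-parameter logistic curve fitting.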

SMILES	IC50 [nM]
Cc1ccc2c(N)c(C(=O)N[C@H]3COc4cc(N5C[C@@H](N)[C@@H](F)C5)ccc4C3)sc2n1 (single isomer, unassigned) [Example 3-5]	200 to 2000
Cc1ccc2c(N)c(C(=O)N[C@H]3COc4cc(N5C[C@@H](F)[C@@H](N)C5)ccc4C3)sc2n1 (single isomer, unassigned) [Example 3-6]	200 to 2000
COC[C@@H]1CN(c2nc3c(cc2F)C[C@H](NC(=O)c2sc4nc(C)ccc4c2N)CC3)C[C@@H]1N (single isomer, unassigned) [Example 302]	200 to 2000
COC[C@H]1CN(c2nc3c(cc2F)C[C@H](NC(=O)c2sc4nc(C)ccc4c2N)CC3)C[C@H]1N (single isomer, unassigned) [Example 303]	> 2000
CO[C@H]1CCN(c2ccc3c(n2)CC[C@H](NC(=O)c2sc4nc(C)ccc4c2N)C3)C[C@@H]1N (single isomer, unassigned) [Example 315]	200 to 2000
CO[C@@H]1CCN(c2ccc3c(n2)CC[C@H](NC(=O)c2sc4nc(C)ccc4c2N)C3)C[C@H]1N (single isomer, unassigned) [Example 316]	> 2000
CCOC1CN(c2ccc3c(c2)OC[C@H](NC(=O)c2sc4nc(C)cc(C)c4c2N)C3)C[C@@H]1N (stereo in doubt) [Example 323, 3-amino-N-[(3R)-7-[(3S,4R)-3-amino-4-ethoxypyrrolidin-1-yl]-3,4-dihydro-2H-1-benzopyran-3-yl]-4,6-dimethylthieno[2,3-b]pyridine-2-carboxamide]	50 to 200
COC[C@@]1(C)CN(c2ccc3c(n2)CC[C@H](NC(=O)c2sc4nc(C)ccc4c2N)C3)CC1N (stereo in doubt) [Example 343, 3-amino-N-[(6S)-2-[(3S,4S)-4-amino-3-(methoxymethyl)-3-methylpyrrolidin-1-yl]-5,6,7,8-tetrahydroquinolin-6-yl]-6-methylthieno[2,3-b]pyridine-2-carboxamide]	200 to 2000
COC[C@H]1C[C@H](N)CN1c1ccc2c(c1)OC[C@H](NC(=O)c1sc3nc(C)ccc3c1N)C2 [Example 261, 3-amino-N-[(3R)-7-[(2R,4S)-4-amino-2-(methoxymethyl)pyrrolidin-1-yl]-3,4-dihydro-2H-1-benzopyran-3-yl]-6-methylthieno[2,3-b]pyridine-2-carboxamide]	50 to 200
COC[C@H]1C[C@@H](N)CN1c1ccc2c(c1)OC[C@H](NC(=O)c1sc3nc(C)ccc3c1N)C2 [Example 262, 3-amino-N-[(3R)-7-[(2R,4R)-4-amino-2-(methoxymethyl)pyrrolidin-1-yl]-3,4-dihydro-2H-1-benzopyran-3-yl]-6-methylthieno[2,3-b]pyridine-2-carboxamide]	200 to 2000
COC[C@@H]1C[C@H](N)CN1c1ccc2c(c1)OC[C@H](NC(=O)c1sc3nc(C)ccc3c1N)C2 [Example 263, 3-amino-N-[(3R)-7-[(2S,4S)-4-amino-2-(methoxymethyl)pyrrolidin-1-yl]-3,4-dihydro-2H-1-benzopyran-3-yl]-6-methylthieno[2,3-b]pyridine-2-carboxamide]	50 to 200
N#Cc1c(N2CC3CCC(C2)N3)cc2c(c1F)C[C@@H](NC(=O)c1cnc3c(c1)[C@@H]1C[C@@H]1CN3)CO2 [Example 264, (6aS,7aR)-N-[(3R)-6-cyano-7-{3,8-diazabicyclo[3.2.1]octan-3-yl}-5-fluoro-3,4-dihydro-2H-1-benzopyran-3-yl]-5H,6H,6aH,7H,7aH-cyclopropa[c]1,8-naphthyridine-2-carboxamide]	1 to 50
N#Cc1c(N2CC3CCC(C2)N3)cc2c(c1F)C[C@@H](NC(=O)c1cnc3c(c1)[C@H]1C[C@H]1CN3)CO2 [Example 265, (6aR,7aS)-N-[(3R)-6-cyano-7-{3,8-diazabicyclo[3.2.1]octan-3-yl}-5-fluoro-3,4-dihydro-2H-1-benzopyran-3-yl]-5H,6H,6aH,7H,7aH-cyclopropa[c]1,8-naphthyridine-2-carboxamide]	200 to 2000
CO[C@H]1CN(c2ccc3c(n2)CC[C@H](NC(=O)c2sc4nc(C)cnc4c2N)C3)C[C@@H]1NC(C)=O [Example 266, 7-amino-N-[(6S)-2-[(3S,4S)-3-acetamido-4-methoxypyrrolidin-1-yl]-5,6,7,8-tetrahydroquinolin-6-yl]-3-methylthieno[2,3-b]pyrazine-6-carboxamide]	> 2000
CCO[C@@H]1CN(c2ccc3c(c2)CC[C@H](NC(=O)c2sc4nc(C)ccc4c2N)C3)C[C@@H]1N [Example 267, 3-amino-N-[(2S)-6-[(3S,4R)-3-amino-4-ethoxypyrrolidin-1-yl]-1,2,3,4-tetrahydronaphthalen-2-yl]-6-methylthieno[2,3-b]pyridine-2-carboxamide]	200 to 2000
CCO[C@H]1CN(c2ccc3c(c2)CC[C@H](NC(=O)c2sc4nc(C)ccc4c2N)C3)C[C@H]1N [Example 268, 3-amino-N-[(2S)-6-[(3R,4S)-3-amino-4-ethoxypyrrolidin-1-yl]-1,2,3,4-tetrahydronaphthalen-2-yl]-6-methylthieno[2,3-b]pyridine-2-carboxamide]	> 2000
CO[C@@H]1CN(c2ccc3c(n2)CC[C@H](NC(=O)c2sc4nc(C)ccc4c2N)C3)C[C@@H]1N [Example 269, 3-amino-N-[(6S)-2-[(3S,4R)-3-amino-4-methoxypyrrolidin-1-yl]-5,6,7,8-tetrahydroquinolin-6-yl]-6-methylthieno[2,3-b]pyridine-2-carboxamide]	> 2000
CO[C@H]1CN(c2ccc3c(n2)CC[C@H](NC(=O)c2sc4nc(C)ccc4c2N)C3)C[C@H]1N [Example 270, 3-amino-N-[(6S)-2-[(3R,4S)-3-amino-4-methoxypyrrolidin-1-yl]-5,6,7,8-tetrahydroquinolin-6-yl]-6-methylthieno[2,3-b]pyridine-2-carboxamide]	> 2000
COC[C@@H]1CN(c2ccc3c(c2)OC[C@H](NC(=O)c2sc4nc(C)cc(C)c4c2N)C3)C[C@@H]1N [Example 275, 3-amino-N-[(3R)-7-[(3R,4R)-3-amino-4-(methoxymethyl)pyrrolidin-1-yl]-3,4-dihydro-2H-1-benzopyran-3-yl]-4,6-dimethylthieno[2,3-b]pyridine-2-carboxamide]	200 to 2000
COC[C@H]1CN(c2ccc3c(c2)OC[C@H](NC(=O)c2sc4nc(C)cc(C)c4c2N)C3)C[C@H]1N [Example 276, 3-amino-N-[(3R)-7-[(3S,4S)-3-amino-4-(methoxymethyl)pyrrolidin-1-yl]-3,4-dihydro-2H-1-benzopyran-3-yl]-4,6-dimethylthieno[2,3-b]pyridine-2-carboxamide]	50 to 200
COC[C@@H]1CN(c2cc(F)c3c(c2F)OC[C@H](NC(=O)c2sc4nc(C)cc(C)c4c2N)C3)C[C@@H]1N [Example 277, 3-amino-N-[(3R)-7-[(3R,4R)-3-amino-4-(methoxymethyl)pyrrolidin-1-yl]-5,8-difluoro-3,4-dihydro-2H-1-benzopyran-3-yl]-4,6-dimethylthieno[2,3-b]pyridine-2-carboxamide]	200 to 2000
COC[C@H]1CN(c2cc(F)c3c(c2F)OC[C@H](NC(=O)c2sc4nc(C)cc(C)c4c2N)C3)C[C@H]1N [Example 278, 3-amino-N-[(3R)-7-[(3S,4S)-3-amino-4-(methoxymethyl)pyrrolidin-1-yl]-5,8-difluoro-3,4-dihydro-2H-1-benzopyran-3-yl]-4,6-dimethylthieno[2,3-b]pyridine-2-carboxamide]	50 to 200
